According to paper PMC10668861 (2023):

System: F21D (DNA, G4) GGGTTAGGGTTAGGGTTAGGG
Assay: FRET melting
Details: 5 mM K+, 95 mM Li+; 10 mM lithium cacodylate, pH 7.2; 0.2 µM DNA, 4 µM compound

[Ru+2].c1ccc(-c2ccccn2)nc1.c1ccc(-c2ccccn2)nc1.c1ccc2nc3c4cccnc4c4ncccc4c3nc2c1
ΔTm: 14 ± 1 °C
